Source: patent publication US11926826B2, “Twist signaling inhibitor compositions and methods of using the same” (City of Hope, priority 2016, dated 2024)

Legend:
Vimentin mRNA = assay: qPCR after YTZ3-15 delivery of siTwist in SUM 1315: Vimentin; type: cell-based, human; details: delivered via YTZ3-15; after one day
Description: (§1) Cell Culture, Transfection, and Stable Cell Line Production. SUM 1315 breast cancer cells were obtained from ATCC (Manassas, VA). Cells were maintained at 37° C., 5% CO2, and 90% humidity in a tissue culture incubator. Media for SUM 1315 cells consisted of a 50-50 mixture of DMEM and F12 media, supplemented with 5 μg/ml insulin, 10 ng/ml EGF, 5% fetal bovine serum, and 1% penicillin/streptomycin. Cells were passaged using 0.25% trypsin (Genesee Scientific, San Diego, CA) every 2-3 days as they reached confluency. […]
(§2) Quantitative PCR. […] RNA quantity and quality was measured and analyzed (with 260/280 nm and 260/230 nm spectra measurements) using a NanoDrop ND-1000 (Thermo Fisher Scientific, Waltham, MA). […] Quantitative RT-PCR was performed in quadruplicate using Maxima SYBR Green Master Mix (Thermo Fisher Scientific, Waltham, MA) in 25 μl reactions. […] Data were analyzed using Bio-Rad iQ5 software using the 2^−ΔΔ^Ct method and normalized to Actin. […]

TWIST = TWIST knockdown after YTZ3-15 delivery of siRNA in ovarian cancer cell lines; type: cell-based
Description: PAMAM dendrimer design and delivery. The polyamidoamine (PAMAM) dendrimer used in this study is the […] third generation dendrimer, illustrated in FIG. 16A and previously described. To complex the dendrimer with siRNA, YTZ3-15 at 240 μM was mixed with […] in OptiMEM Low Serum Medium (Thermo Fisher). Upon complexing with siRNA, dendrimers form micelle structures with siRNA at the surface and the hydrophobic tails sequestered in the core (FIG. 16B). 14.6 μl YTZ3-15 and 10 μl siRNA were used per well of a 6-well plate. Final concentrations of YTZ3-15 and siRNA once added to cells were 1.75 μM and 50 nm, respectively. Where indicated, 3.5 μM YTZ3-15 and 100 nm siRNA were used for Ovcar8.
Western Blotting. Following siRNA treatment, cells were pelleted and lysed in RIPA buffer. Protein concentration was determined by BCA assay (Thermo Fisher). Following SDS-PAGE, protein was transferred to Amersham PVDF membrane (Genesee Scientific) using a BioRad Trans-Blot SD semi-dry transfer unit. Blots were then blocked in milk for one hour at room temperature or overnight at 4° C. Incubation with primary antibody took place for one hour at room temperature or overnight at 4° C. Antibodies were diluted in 5% milk, with 0.1-0.2% Tween-20. Antibodies used were TWIST 2c1a (Santa Cruz Biotechnology, Dallas, TX) at 1:250-1:500 dilution, β-Actin, A1978 (Sigma Aldrich, St. Louis, MO) at 1:2500-1:5000 dilution; and Horseradish Peroxidase (HRP) conjugated anti-mouse secondary antibodies. For film-based westerns, Blue Devil film (Genesee Scientific) and ECL Plus chemiluminescent substrate (Thermo Fisher) were used to detect protein. For digital westerns, the Syngene Pxi4 digital blot imager and Michigan Diagnostics FemtoGlow chemilumescent substrate were used.

TWIST1 = TWIST1 knockdown after Lipofectamine 2000 transfection in SUM 1315; type: cell-based, human
Description: as §1, §2
Western Blot. […] Cells were pelleted, lysed in RIPA buffer, and protein concentration was determined using the BCA Assay (Thermo Fisher Scientific, Waltham, MA). […]

N-Cadherin mRNA = assay: qPCR after YTZ3-15 delivery of siTwist in SUM 1315: N-Cadherin; type: cell-based, human; details: delivered via YTZ3-15; after seven days
Description: as §1, §2

## si419: anti-TWIST siRNA; passenger 5′-GGACAAGCUGAGCAAGAUU-3′ (SEQ ID No: 1), guide 5′-AAUCUUGCUCAGCUUGUCCUU-3′ (SEQ ID No: 2) (listed as RNA, chemistry not fully specified)
Vimentin mRNA
  Vimentin mRNA level: nearly undetectable
TWIST; A2780R
  TWIST knockdown: successfully knocked down TWIST
TWIST; Ovcar8, double the usual dose (100 nM siRNA)
  TWIST knockdown: minimal
TWIST1
  TWIST1 knockdown (protein and mRNA): knockdown of TWIST1
N-Cadherin mRNA
  N-Cadherin mRNA decrease: approximately 90%
